# Source: patent US11173124B2, “Oral delivery of GLP-1 peptide analogs” (MEDIMMUNE LIMITED, priority 2017, dated 2021)
# Several values for one entry are separate records, joined by “and”; a condition that tells them apart may be missing. Equal entries are not always repeated. Where two headings read alike, the source gives them in different places. Starred links: 1 amine or outer side, 2 acyl side, 3 side chain; linkers in the order of their positions; H or OH if unused. Non-standard residues stand in square brackets, D forms with d. Residues, ends and D or L forms follow the SMILES beside them. Groups on a side chain read outwards from the residue. *: point of attachment. γGlu = O=C(O)[C@H](CCC(=O)[*:2])N[*:1]; αMeF = C[C@](N)(Cc1ccccc1)C(=O)O; αMeK = C[C@](N)(CCCCN)C(=O)O; Lauroyl = CCCCCCCCCCCC(=O)*; αMeS = C[C@](N)(CO)C(=O)O; AEEA = NCCOCCOCC(=O)O; Aib = CC(C)(N)C(=O)O
# How the values were obtained:
# [1] = molecular target: GLP-1 receptor (Homo sapiens, UniProt P43220); assay: cAMP assay, primary assay as described in WO 2016/198544; format: cell-based; conditions: in vitro potency at the GLP-1 receptor
# Text: The biological activity of a GLP-1 peptide analog can be evaluated, for example, by assessing the ability of the peptide to activate a receptor (e.g., a GLP-1 receptor). Peptide activation of such receptors results in downstream accumulation of cAMP second messenger which can be measured in a functional activity assay.
# [2] = Rat intraduodenal study, MEDI7219 with new permeation enhancer formulations (Example 7); format: in vivo; conditions: for AUC(0-t) / Cmax / Tmax / half-life: plasma; for half-life: read-out: T ½ (converted)
# Procedure: The following rat ID study compared oral bioavailability of the MEDI7219 (SEQ ID NO:2) peptide formulated with new permeation enhancer formulations after intraduodenal administration in rats. All test articles were prepared as solutions in 50 mM Tris, 150 mM mannitol, 0.02% polysorbate 80, pH 8.5. Table 8 gives the formulation and pharmacokinetic analysis details.
# [3] = Rat intraduodenal study, MEDI7219 with new gallate derivatives and other enhancers (Example 8); format: in vivo
# Procedure: The next rat ID administration study was performed to assess the oral bioavailability and pharmacokinetics of MEDI7219 (SEQ ID NO:2) formulations containing new gallate derivatives, sodium 2-(3,4,5-trihydroxybenzoyloxy) acetate and butanoate, sodium cholate with propyl gallate, sodium caprate with propyl gallate, sodium caprate with propyl gallate and citric acid, and sucrose monododecanoate.
# [4] = Canine study, MEDI7219 tablets in acid-resistant capsules (Example 13); format: in vivo
# Procedure: The formulations tested in this study contained the MEDI7219 (SEQ ID NO:2) peptide, whereas the SEQ ID NO:6 peptide was used in tablet formulations for the previous canine study in Example 12. Tablets were placed in acid-resistant capsules (one tablet/capsule) prior to dosing. […] (Table 20). This formulation contained 0.1 mg/kg MEDI7219 (SEQ ID NO:2) peptide and 300 mg total permeation enhancer (PE) consisting of a 1:2 ratio of sodium chenodeoxycholate to propyl gallate. This ratio worked better compared to a 2:1 ratio of these permeation enhancers (Group 9, Table 20). This study also confirmed the utility of Tris base as a pH stabilizer.
# [5] = Canine study, MEDI7219 enterically coated tablet, single and repeated dosing (Example 14); format: in vivo
# Procedure: Tablet optimization was further established in the following canine study. The goals of this study were to evaluate the performance of the group 8 tablet formulation (Example 13, Table 20) as an enterically-coated (EC) tablet and to evaluate repeated dosing of this formulation. A Eudragit formula dissolving at pH 5.5 or above was applied to the tablets as enteric coating. Enterically-coated tablets were administered on day 0 followed by a 1 week wash-out. Following wash-out, animals received additional doses on days 7, 8, 9, 10 and 11.
# [6] = Canine study, compositions around 6.5:1 Na CDC:PG ratio in enterically coated tablets (Example 23, Table 30); format: in vivo; conditions: dogs, oral enterically coated tablet
# Text: The following materials and methods were used for quantitative measurements of GLP-1 peptide analogs in plasma (e.g., rat or dog plasma) in the Examples below. These methods used a SCIEX 6600 TripleTOF mass spectrometer coupled with a Shimadzu ultra-high performance liquid chromatography (UHPLC). The specificity of the method was ensured by the retention time, the selected mass for Single-Reaction-Monitoring (SRM) mode, and the selected fragment mass in MS/MS (MS^2) mode.
# The plasma extraction procedure used the following steps: • Samples, standards, and quality controls were incubated until they reached room temperature. They were then incubated at 60° C. for 2 minutes and cooled down to room temperature, vortexed, and spun down. • 70 μL of samples, standards, or quality controls were transferred into a 1 mL 96-well plate. • In each well, 420 uL of Precipitation Solution was added. The plate was sealed and shook for 10 minutes on a plate shaker at 600 rpm. • The plate was centrifuged at 18G, 2500 RFC, 20° C. for 10 minutes. • The plate was carefully removed, and the upper clear supernatant was extracted with a 200 uL multichannel pipette into a new 96-well protein lobind plate. The supernatant was extracted twice for each well, and the supernatants were combined. • The Plate was placed in TurboVap and the extracted supernatant was dried completely with heated (65° C.) Nitrogen gas at 60 Fahrenheit (Fh). • After the plate was completely dry, the plates were covered and incubated at room temperature for at least 30 minutes until the plate returned back to ambient temperature. • 150 μL of Reconstitution solution was added to each well. The plate was covered with a pierceable place seal and shaken at 600 rpm for 10 minutes. • The samples were submitted to the LC-MS/MS on the same day of Preparation
# Quantification of the data obtained using the high resolution SCIEX 6600 instrument was then performed as follows: • For the quantification, extracted ion chromatograms (XIC) using 0.2 Da m/z extraction window centered on the accurate mass of each fragment ion were generated. Accurate mass was calculated from the structure of the compound. […] Concentrations of the target analyte in unknown samples were obtained by regression analysis using linear fits of peak areas vs. analyte concentration, weighted 1/(concentration). • The quality of the assay was controlled by the quality control samples. • Either Experiment 1 or Experiment 2 could be used for the quantification of the GLP-1 peptide analogs in high resolution mode.
# [7] = iv, 0.01 mg/kg, IV, 0.01 mg/kg, Group 1 control, 0.01 mg/mL peptide
# [8] = other: intraduodenal (ID), 1 mg/kg, ID, 1 mg/kg, Group 2: 0.5 mg/mL peptide, 25 mg/mL Na CDC, 12.5 mg/mL Ethyl Gallate
# [9] = other: intraduodenal (ID), 1 mg/kg, ID, 1 mg/kg, Group 3: 0.5 mg/mL peptide, 12.5 mg/mL Na CDC, 25 mg/mL Ethyl Gallate
# [10] = other: intraduodenal (ID), 1 mg/kg, ID, 1 mg/kg, Group 4: 0.5 mg/mL peptide, 25 mg/mL Na CDC, 12.5 mg/mL Octyl Gallate
# [11] = other: intraduodenal (ID), 1 mg/kg, ID, 1 mg/kg, Group 5: 0.5 mg/mL peptide, 25 mg/mL Chenodeoxycholic acid, 12.5 mg/mL PG
# [12] = other: intraduodenal (ID), 1 mg/kg, ID, 1 mg/kg, Group 8: 0.5 mg/mL peptide, 25 mg/mL Na CDC, 12.5 mg/mL PG
# [13] = 4:1 ratio, 120 mg Na CDC and 30 mg PG, 3 mg MEDI7219
# [14] = 14:1 ratio, 140 mg Na CDC and 10 mg PG, 3 mg MEDI7219
# [15] = 29:1 ratio, 145 mg Na CDC and 5 mg PG, 3 mg MEDI7219
# Sequence of GLP-1 receptor (P43220 24-463): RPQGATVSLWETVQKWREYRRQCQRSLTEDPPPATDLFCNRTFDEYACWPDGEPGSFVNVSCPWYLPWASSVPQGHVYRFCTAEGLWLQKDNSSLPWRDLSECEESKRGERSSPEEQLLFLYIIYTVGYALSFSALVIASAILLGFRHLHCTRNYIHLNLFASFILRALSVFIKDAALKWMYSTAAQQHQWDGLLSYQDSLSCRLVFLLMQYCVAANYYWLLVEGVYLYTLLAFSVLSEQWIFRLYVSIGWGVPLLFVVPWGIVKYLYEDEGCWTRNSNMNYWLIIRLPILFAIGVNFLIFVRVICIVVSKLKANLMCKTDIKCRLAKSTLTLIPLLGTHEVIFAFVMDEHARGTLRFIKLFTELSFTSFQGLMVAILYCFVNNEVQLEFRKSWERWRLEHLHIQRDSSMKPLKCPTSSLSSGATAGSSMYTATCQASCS
smiles,measurement,setting,value
"CCCCCCCCCCCC(=O)N[C@@H](CCC(=O)NCCOCCOCC(=O)NCCOCCOCC(=O)NCCCC[C@H](NC(=O)[C@H](C)NC(=O)[C@@H](NC(=O)[C@](C)(Cc1ccccc1)NC(=O)[C@H](CCC(=O)O)NC(=O)[C@](C)(CCCCN)NC(=O)[C@H](C)NC(=O)[C@H](C)NC(=O)[C@H](CCC(=O)O)NC(=O)CNC(=O)[C@H](CCC(=O)O)NC(=O)[C@H](CC(C)C)NC(=O)[C@H](CCCCNC(=O)COCCOCCNC(=O)COCCOCCNC(=O)CC[C@H](NC(=O)CCCCCCCCCCC)C(=O)O)NC(=O)[C@H](CO)NC(=O)[C@](C)(CO)NC(=O)[C@@H](NC(=O)[C@H](CC(=O)O)NC(=O)[C@H](CO)NC(=O)[C@@H](NC(=O)[C@](C)(Cc1ccccc1)NC(=O)[C@H](CO)NC(=O)CNC(=O)[C@H](CCC(=O)O)NC(=O)C(C)(C)NC(=O)[C@@H](N)Cc1c[nH]cn1)[C@@H](C)O)C(C)C)[C@@H](C)CC)C(=O)N[C@H](C(=O)N[C@H](C(=O)N[C@@H](CCC(=O)O)C(=O)NCC(=O)NCC(N)=O)C(C)C)C(C)C)C(=O)O [MEDI7219, Free-H-[AIB]-EGS-[αMePhe]-TSDV-[αMeSer]-SK[(PEG2)2-γE-Lauroyl]-LEGEAA-[αMeLys]-E-[αMePhe]-IAK[(PEG2)2-γE-Lauroyl]-VVEGG-amide] (H-H[Aib]EGS[αMeF]TSDV[αMeS]SK([AEEA-AEEA-γGlu-Lauroyl])LEGEAA[αMeK]E[αMeF]IAK([AEEA-AEEA-γGlu-Lauroyl])VVEGG-NH2)",EC50,[1],~3.9 pM
same,F,"[2]; ID, 1 mg/kg, Group 2: 0.5 mg/mL peptide, 25 mg/mL Na CDC, 12.5 mg/mL Ethyl Gallate",1.11%
same,F,"[2]; ID, 1 mg/kg, Group 3: 0.5 mg/mL peptide, 12.5 mg/mL Na CDC, 25 mg/mL Ethyl Gallate",2.14%
same,F,"[2]; ID, 1 mg/kg, Group 4: 0.5 mg/mL peptide, 25 mg/mL Na CDC, 12.5 mg/mL Octyl Gallate",1.12%
same,F,"[2]; ID, 1 mg/kg, Group 5: 0.5 mg/mL peptide, 25 mg/mL Chenodeoxycholic acid, 12.5 mg/mL PG, 1 mg/kg",1.96% and 1.92%
same,F,"[2]; ID, 1 mg/kg, Group 6: 0.5 mg/mL peptide, 25 mg/mL Ursodeoxycholic acid, 12.5 mg/mL PG",0%
same,F,"[2]; ID, 1 mg/kg, Group 7: 0.5 mg/mL peptide, 25 mg/mL Na CDC, 12.5 mg/mL PG, 25 mg/mL N-Acetyl Cysteine",0%
same,F,"[2]; ID, 1 mg/kg, Group 8: 0.5 mg/mL peptide, 25 mg/mL Na CDC, 12.5 mg/mL PG",1.45%
same,F,"[2]; IV, 0.01 mg/kg, Group 1 control, 0.01 mg/mL peptide",100%
same,AUC(0-t),[2]; [7],1030 ng·h/mL
same,Cmax,[2]; [7],187 ng/mL
same,Tmax,[2]; [7],0.083 h
same,half-life,[2]; [7],8.9 h
same,AUC(0-t),[2]; [8],1110 ng·h/mL
same,Cmax,[2]; [8],175 ng/mL
same,Tmax,[2]; [8],0.25 h
same,half-life,[2]; [8],10.3 h
same,AUC(0-t),[2]; [9],1970 ng·h/mL
same,Cmax,[2]; [9],282 ng/mL
same,Tmax,[2]; [9],0.25 h
same,half-life,[2]; [9],7.96 h
same,AUC(0-t),[2]; [10],1170 ng·h/mL
same,Cmax,[2]; [10],240 ng/mL
same,Tmax,[2]; [10],0.25 h
same,half-life,[2]; [10],7.97 h
same,AUC(0-t),[2]; [11],1890 ng·h/mL
same,Cmax,[2]; [11],546 ng/mL
same,Tmax,[2]; [11],0.25 h
same,half-life,[2]; [11],8.6 h
same,AUC(0-t),[2]; [12],1540 ng·h/mL
same,Cmax,[2]; [12],140 ng/mL
same,Tmax,[2]; [12],2 h
same,half-life,[2]; [12],8.83 h
same,Bioavailability F (%),"[3]; ID, 1 mg/kg, Group 6: 12.5 mg/mL Sodium Cholate, 25 mg/mL PG (25 + 50 mg/kg)",no bioavailability
same,Bioavailability F (%),"[3]; ID, 1 mg/kg, Group 7: 12.5 mg/mL Sodium Caprate, 25 mg/mL PG (25 + 50 mg/kg)",~0.6%
same,Bioavailability F (%),"[3]; ID, 1 mg/kg, Group 8: 12.5 mg/mL Sodium Caprate, 25 mg/mL PG, 10 mg/mL Citric Acid",0 (NA) %
same,exposure,"[3]; ID, addition of citric acid to sodium caprate and propyl gallate",below level of quantification
same,Bioavailability F (%),"[3]; IV, 0.01 mg/kg, Group 1 control in 50 mM Tris, 150 mM Mannitol, 0.02% Polysorbate 80, pH 8.5",100%
same,F,"[4]; Intravenous, 0.01 mg/kg, 0.1 mg/mL in 50 mM Tris, 150 mM Mannitol, 0.02% Polysorbate 80, pH8.0",100%
same,F,"[4]; Oral tablet in capsule, Group 8: 1 mg peptide, 100 mg Na CDC, 200 mg PG",10.7%
same,F,"[4]; Oral tablet in capsule, Group 9: 1 mg peptide, 200 mg Na CDC, 100 mg PG",5.0%
same,F,"[4]; Oral tablet in capsule, Group 12: 1 mg peptide, 33.3 mg Na CDC, 16.6 mg PG (NO TRIS)",0%
same,F,"[5]; Enterically Coated Oral tablet (Eudragit, pH 5.5): 1 mg peptide, 100 mg Na CDC, 200 mg PG",4.6%
same,F,"[5]; Intravenous, 0.05 mg/kg, 0.5 mg/mL in 50 mM Tris, 150 mM mannitol, 0.02% Polysorbate 80, pH8.0",100%
same,bioavailability and PK variability on repeated dosing,"[5]; enterically coated tablet 1 mg peptide, 100 mg Na CDC, 200 mg PG, day 0, then days 7, 8, 9, 10 and 11",consistent bioavailability with reduced PK variability in subsequent dosing days
same,F,[6]; [13],~5.7%
same,PK variability (CV) at C max,[6]; [13],52.8%
same,F,[6]; [14],~4.6%
same,PK variability at C max,[6]; [14],84.4%
same,F,[6]; [15],~3.8%
same,PK variability at C max,[6]; [15],135.3%
same,F,"[6]; No PG formulation, 150 mg Na CDC",~0.6%
